Test results published in patent US20080081078A1, “Prevention of Cell Proliferation by Inhibiting Myosin Light Chain Kinase” (The Board of Trustees of the University of Illinois, priority 2006, published 2008).
Where two headings read alike, the source gives them in different places.

What was measured:
[1] = tested on: MLC-P; assay: MLC-P by urea/glycerol gel immunoblotting in MLL cells; format: cell-based, rat; conditions: 5 μM ML-7, 30 μM etoposide or both
[2] = tested on: Mm5MT mouse mammary cancer cells; assay: Annexin V / PI flow cytometry apoptosis assay in Mm5MT cells; format: cell-based
Procedure: The Mm5MT mouse mammary adenocarcinoma cancer cell line was obtained from American Type Culture Collection (ATCC, Manassas, Va., USA) and was maintained in DMEM medium supplemented with 10% fetal bovine serum (FBS) and 100 U/ml penicillin, 100 μg/ml streptomycin. The MatLy-Lu (MLL) sub-line of the Dunning R-3327 prostate adenocarcinoma (graciously provided by B. Lokeshwar, University of Miami) (Lokeshwar et al., Int. J. Cancer 2002; 98:297-309) was maintained in RPMI1640 medium supplemented with 10% FBS, 250 nM dexamethasone, 100 U/ml penicillin and 100 μg/ml streptomycin.
Mm5MT or MLL cells (200,000 cells per well) were seeded in 6-well dishes one day before drug treatment and cultured as described above. On the day of the experiment, media was changed to DMEM supplemented with 0.5% FBS and the cells were treated with drugs as defined by the specific experimental protocol. ML-7 (Biomol, Plymouth Meeting, Pa.) was incubated with cells for 16 h when used alone. When used in combination with etoposide, ML-7 was added to cells 2 h before adding the indicated concentration of etoposide (Calbiochem, La Jolla, Calif.) and the cells were incubated with ML-7 and etoposide for an additional 16 h. The cells were then treated with trypsin, washed twice with cold PBS and re-suspended in 100 μl of buffer containing 10 mM Hepes, pH 7.4, 140 mM NaCl and 2.5 mM CaCl2 (binding buffer). […] Next, 400 μl of binding buffer was added per sample and the cells were analyzed cytofluorometrically using a Coulter Epics Elite ESP flow cytometer (Ex: 488 nm, Em: 585 nm). At least 10,000 cells were counted per analysis and cells that stained positive for annexin V and PI were judged to be apoptotic.
Cells were grown in culture dishes in Dulbecco's Modified Eagle Medium (Gibco BRL, Gaithersburg, Md.) supplemented with 10% FBS and 1% penicillin and streptomycin. […] The floating and attached cells were combined and analyzed using conventional methods.
To quantify apoptosis, cells were washed twice with cold PBS, resuspended in 100 μl of 10 mM Hepes, pH 7.4, 140 mM NaCl, 2.5 mM CaCl2 (Binding Buffer). […] After incubation, 400 μl of binding buffer was added per sample and cells were analyzed cytofluorimetrically using a Coulter Epics Elite ESP flow cytometer (excitation wavelength: 488 nm, emission wavelength: 585 nm). At least 10,000 cells were counted per analysis and cells that stained positive for Annexin V and PI were considered apoptotic.
The combined effects of ML-7 and etoposide to induce apoptosis in mouse Mm5MT mammary cancer cells was determined by pre-treating cells with vehicle (FIG. 9, open bar) or 10 μM ML-7 (shaded bar) for 2 h. Varying concentrations of etoposide (1-1000 μM) were then added and apoptosis was quantified 16 h later. […]

## COc1cc([C@@H]2c3cc4c(cc3[C@@H](O[C@@H]3O[C@@H]5CO[C@@H](C)O[C@H]5[C@H](O)[C@H]3O)[C@H]3COC(=O)[C@H]23)OCO4)cc(OC)c1O [etoposide]
[1]
  MLC-P: smaller decrease in MLC-P
[2]; etoposide alone, extrapolation (FIG. 8), read-out: concentration of etoposide required to induce apoptosis in 50% of the cells
  EC50: ~300 µM
[2]; minus ML-7, curve fitting (FIG. 9), read-out: concentration of etoposide required for inducing apoptosis in 50% of the cells
  EC50: 572 µM
[2]; plus 10 μM ML-7 (2 h pre-treatment), curve fitting (FIG. 9), read-out: concentration of etoposide required for inducing apoptosis in 50% of the cells
  EC50: 25.4 µM
[2]; plus ML-7 (10 μM), extrapolation (FIG. 8), read-out: concentration of etoposide required to induce apoptosis in 50% of the cells
  EC50: ~20 µM
